From ChEMBL document CHEMBL1240509, “Modulators of the hedgehog signaling pathway” (Bioorg Med Chem, 2010)
pEC50, pIC50: −log10 of the molar value.

Assay: Inhibition of hedgehog receptor mediated Ptch1 transcription
Conditions: not given; call rule not given here

SMILES | pEC50
CC1=C2C[C@H]3[C@@H](CC=C4C[C@@H](O)CC[C@@]43C)[C@@H]2CC[C@]12O[C@@H]1C[C@H](C)CN[C@H]1[C@H]2C [CYCLOPAMINE] | 6.52

Assay: Antagonist activity at hedgehog receptor
Type: functional
Conditions: not given

pIC50 | SMILES
7.70 | CC1=C2C[C@H]3[C@@H](CC=C4CC(=O)CC[C@@]43C)[C@@H]2CC[C@]12O[C@@H]1C[C@H](C)CN(CCNC(=O)CCCCCNC(=O)CCc3ccccc3)[C@H]1[C@H]2C
7.70 | CCCN[C@H]1CC[C@H](N(Cc2cccc(-c3ccncc3)c2)C(=O)c2sc3ccccc3c2Cl)CC1
5.30 | CN(C)c1ccccc1CN1CCCN(Cc2ccccc2N(C)C)C1c1ccncc1
5.30 | c1cc(-c2sc(-c3ccncc3)c(-c3ccncc3)c2-c2ccncc2)ccn1
7.52 | CCOc1cc(C(=O)Nc2ccc(Cl)c(-c3nc4ccccc4[nH]3)c2)cc(OCC)c1OCC
5.51 | O=C(C[C@@H]1C/C=C/CCC(=O)O[C@H](c2ccccc2)CNC1=O)NCc1ccc(Cl)cc1 [ROBOTNIKININ]

The next lines start with the compound.

SMILES | pIC50
CC1=C2C[C@H]3[C@@H](CCC4=CC(=O)CC[C@@]43C)[C@@H]2CC[C@@]2(C1)O[C@@H]1C[C@H](C)CNC1[C@H]2C (single isomer, unassigned) | 6.70
COCCOC(=O)C1=C(C)NC2=C(C(=O)CC(c3ccccc3OC)C2)C1c1cccc(O)c1 (stereo not given) | 5.82
C[C@@]12C[C@H]3OC(=O)[C@@H]1CO[C@]14O[C@]5([C@H]2C1=O)[C@@](O)(CC[C@H]1[C@H]4C[C@H]2O[C@]24CC=CC(=O)[C@]14C)C(=O)O[C@@]35C [PHYSALIN F] | 6.18
CCC(C)n1ncn(-c2ccc(N3CCN(c4ccc(OCC5COC(Cn6cncn6)(c6ccc(Cl)cc6Cl)O5)cc4)CC3)cc2)c1=O (stereo not given) [ITRACONAZOLE] | 6.10
CC1=C2C[C@H]3[C@@H](CC[C@@H]4CNC(=O)CC[C@@]43C)[C@@H]2CC[C@@]2(C1)O[C@@H]1C[C@H](C)CN[C@@H]1[C@H]2C | 7.52
CC1=C2C[C@H]3[C@@H](CC[C@@H]4C[C@H](NS(C)(=O)=O)CC[C@@]43C)[C@@H]2CC[C@@]2(C1)O[C@@H]1C[C@H](C)CN[C@@H]1[C@H]2C | 8.15
CC1=C2C[C@H]3[C@@H](CC[C@@H]4Cc5n[nH]cc5C[C@@]43C)[C@@H]2CC[C@@]2(C1)O[C@@H]1C[C@H](C)CN[C@@H]1[C@H]2C | 8.00
CS(=O)(=O)c1ccc(C(=O)Nc2ccc(Cl)c(-c3ccccn3)c2)c(Cl)c1 [VISMODEGIB] | 7.89

Assay: Inhibition of hedgehog receptor mediated Gli transcription
Conditions: not given

SMILES | EC50
Cc1c([C@H](C)[C@@H]2NC[C@@H](C)C[C@H]2O)ccc2c1C[C@H]1[C@H]2CC=C2C[C@@H](O)CC[C@@]21C [VERATRAMINE] | Not Active

Same assay, conditions: read-out: EC50

SMILES | pEC50
CC1=C2C[C@H]3[C@@H](CC=C4C[C@@H](O)CC[C@@]43C)[C@@H]2CC[C@]12O[C@@H]1C[C@H](C)CN[C@H]1[C@H]2C [CYCLOPAMINE] | 6.52
CC1=C2C(=O)[C@H]3[C@@H](CC=C4C[C@@H](O)CC[C@@]43C)[C@@H]2CC[C@]12O[C@@H]1C[C@H](C)CN[C@H]1[C@H]2C [JERVINE] | 6.30
CC1=C2C[C@H]3[C@@H](CC=C4C[C@@H](O[C@@H]5O[C@H](CO)[C@@H](O)[C@H](O)[C@H]5O)CC[C@@]43C)[C@@H]2CC[C@]12O[C@@H]1C[C@H](C)CN[C@H]1[C@H]2C [CYCLOPOSINE] | < 6.15

Assay: Agonist activity at hedgehog receptor
Type: functional
Conditions: not given

SMILES | pEC50
CC(C)CC[C@H](O)[C@@H](C)[C@H]1CC[C@H]2[C@@H]3CC=C4C[C@@H](O)CC[C@]4(C)[C@H]3CC[C@]12C | 6.70
CN[C@H]1CC[C@H](N(Cc2cccc(-c3ccncc3)c2)C(=O)c2sc3ccccc3c2Cl)CC1 | 5.52
c1ccc2c(Oc3nc(Nc4ccc(N5CCOCC5)cc4)c4ncn(C5CCCCC5)c4n3)cccc2c1 [PURMORPHAMINE] | 6.00
CC(C)CCC[C@](C)(O)[C@H]1CC[C@H]2[C@@H]3CC=C4C[C@@H](O)CC[C@]4(C)[C@H]3CC[C@@]21C | 7.00
CC(C)[C@@H](O)CC[C@@H](C)[C@H]1CC[C@H]2[C@@H]3CC=C4C[C@@H](O)CC[C@]4(C)[C@H]3CC[C@]12C | 5.52
C[C@H](CCCC(C)(C)O)[C@H]1CC[C@H]2[C@@H]3CC=C4C[C@@H](O)CC[C@]4(C)[C@H]3CC[C@]12C | 6.00
